{"source": "patent US20120003191A1", "about": "“VALPROIC ACID, DERIVATIVES, ANALOGUES, AND COMPOSITIONS INCLUDING SAME AND METHODS FOR THEIR THERAPEUTIC USE” (priority 2009, published 2012)", "key": {"[1]": {"system": "dyw mouse model of MDC1A", "test": "VPA in the dyw mouse model of MDC1A (predicted)", "assay_type": "in vivo", "experimental": "In particular, the effect of VPA on MDC1A is determined by using the dyw mouse model of MDC1A. VPA (60 mg/kg or 240 mg/kg body weight) is administered i.p. daily to male dyw mice (n=11 each, as determined by Power analysis with α=0.05, p=0.8 and r=0.5) for 6 weeks starting at 10 days of age. Daily body weights are noted and mice observed for signs of overt toxicity. Control mice of each genotype will be injected with the same volumes of sterile saline. At the end of the course of injections, mice are sacrificed and the gastrocnemius-soleus, quadriceps, heart and diaphragm harvested. Tissues are sectioned on a Leica CM 1850 cryostat to 10 μm. Hematoxylin-eosin staining is performed on the sections. The effect of VPA on the Akt pathway, fibrosis, apoptosis and/or fiber-diameter variation in skeletal muscle of dyw mice is determined by methods known to those of ordinary skill in the art including, but not limited to those described below.\nAs muscle fiber-diameter variation is a pathological feature in MDC1A muscle, it can be determined if treatment with VPA restores this parameter in dyw mice. Using image analysis software, muscle-fiber diameters are calculated in at least 500 fibers per mouse in both the VPA and control treated groups. […] Data is analyzed by ANOVA and a p-value of <0.05 is considered statistically significant.\nTo quantify fibrosis in muscles, western blotting is performed on muscle extracts using an antibody against collagen VI (Santa Cruz Biotechnology, Santa Cruz, Calif.). Protein extracts are made from muscles as reported (Gurpur et al., 2009) and the Bradford assay is done to determine protein concentrations. Western blotting is carried out using 1:1000 dilution of the anti-collagen VI antibody. The blots are re-probed with an antibody against tubulin to ensure equal protein loading. Band intensities are quantified using the LiCor Odyssey software (LiCor Biosciences, Lincoln, Neb.). Ratio of the collagen VI to tubulin band-intensities is calculated. […] Data is analyzed by ANOVA and a p-value of <0.05 is considered statistically significant.\nMuscle fiber loss due to apoptosis is a significant problem in MDC1A patients. To determine if VPA treatment decreases apoptosis in dyw muscle, after the course of injections, mice are sacrificed and the gastrocnemius-soleus, quadriceps and diaphragm harvested. Tissues are sectioned on a Leica CM 1850 cryostat to 10 μm. The DeadEnd fluorometric TUNEL assay kit (Promega, Madison, Wis.) is used as per the manufacturer's instructions to label apoptotic nuclei in the cryosections. The total number of nuclei (DAPI labeled, fluorescing blue) and the apoptotic nuclei (fluorescing green) are counted in 15 random fields for each muscle, for each mouse. The proportion of apoptotic nuclei is quantified and compared between the VPA injected and control mice. […] Data is analyzed by ANOVA and a p-value of <0.05 is considered statistically significant.\nVPA is administered to male dyw mice (n=11 each) daily for 6 weeks with 80 mg/kg or 240 mg/kg body weight of VPA starting at 10 days of age. Daily body weights are noted and mice are observed for signs of overt toxicity. Control mice are injected with the same volumes of sterile saline.\nAfter the course of injections, mice are sacrificed and the gastrocnemius-soleus, quadriceps and diaphragm harvested. Protein extracts are made from the muscles as reported (Gurpur et al., 2009). […]"}, "[2]": {"system": "α7 integrin", "test": "FDG based β-galactosidase fluorescent assay (reporter for α7 expression)", "assay_type": "cell-based, mouse", "settings": "2 mM VPA, 48 hours, α7+/− myotubes from day two of differentiation", "experimental": "The α7^+/− mice were derived as reported in Flintoff-Dye, et al. Role for the alpha7beta1 integrin in vascular development and integrity, Dev. Dyn. 234:11-21 (2005). These mice were engineered to contain the LacZ gene driven by the α7 integrin promoter. Skeletal muscles from the hind limbs (including gastrocnemius-soleus, quadriceps and tibialis anterior) of a 3-week old α7^+/− mouse were removed under sterile conditions, finely minced in Hank's balanced salt solution (HBSS) and incubated in 5 ml of enzyme solution I consisting of 1.5 U/ml collagenase D (0.15 U/mg powder, from Roche Diagnostics, Indianapolis, Ind.), 2.4 U/ml dispase II (neutral protease, grade II, 0.8 U/mg powder, from Roche Diagnostics) and 2.5 mM calcium chloride for 30 minutes at 37° C. with trituration every 5 minutes. The supernatant was decanted into 5 ml of 20% fetal bovine serum (FBS) (Biomeda Corporation, Foster City, Calif.) in HBSS. Enzyme solution II consisting of 0.6 mg/ml trypsin (stock solution 0.5%, from Invitrogen) in HBSS was added to the remaining muscle fragments, incubated for 30 minutes as above, and the cell suspensions were pooled. […] The fluorescence in each well was quantified using an Analyst plate reader (Molecular Devices, Sunnyvale, Calif.)."}}}
{"smiles": "CCCC(CCC)C(=O)O", "note": "[VPA, valproic acid]", "values": [{"measurement": "Akt pathway in skeletal muscle of dyw mice", "setting": "[1]", "result": "activates the Akt pathway"}, {"measurement": "apoptosis in skeletal muscle of dyw mice", "setting": "[1]", "result": "inhibiting apoptosis"}, {"measurement": "fiber-diameter variation in skeletal muscle of dyw mice", "setting": "[1]", "result": "decreasing fiber-diameter variation"}, {"measurement": "fibrosis in skeletal muscle of dyw mice", "setting": "[1]", "result": "decreasing fibrosis"}, {"measurement": "pathology in dyw mice", "setting": "[1]", "result": "ameliorate pathology"}, {"measurement": "β-galactosidase activity (reporter for α7 expression), highest level", "setting": "[2]", "result": 1.4, "unit": "fold"}]}
